Structures can show the parent of a compound that is named as a salt.
Experiments:
human GPR40 = molecular target: T1, human GPR40 (Homo sapiens, UniProt O14842); experiment: GPR40 antagonist activity with changes in intracellular calcium concentration as index (NFAT-luciferase reporter, CHO(dhfr-)/GPR40-NFAT-Luc cells); type: cell-based; conditions: CHO cell line expressing human GPR40, NFAT-Luc reporter; GPR40 agonist 3-(4-((6-benzyloxy-2',6'-dimethyl-biphenyl-3-yl)methoxy)phenyl)propanoic acid 40 nM; 4 hr culture; 0.1% fatty acid-free BSA
T1 construct: expressed in transfected cells; host or cells: CHO(dhfr-) cells: line CHO-hGPR40 No. 104 of WO2004/041266, with a stably expressed NFAT-TA-Luc reporter (CHO(dhfr-)/GPR40-NFAT-Luc)
T1 sequence (O14842 whole entry): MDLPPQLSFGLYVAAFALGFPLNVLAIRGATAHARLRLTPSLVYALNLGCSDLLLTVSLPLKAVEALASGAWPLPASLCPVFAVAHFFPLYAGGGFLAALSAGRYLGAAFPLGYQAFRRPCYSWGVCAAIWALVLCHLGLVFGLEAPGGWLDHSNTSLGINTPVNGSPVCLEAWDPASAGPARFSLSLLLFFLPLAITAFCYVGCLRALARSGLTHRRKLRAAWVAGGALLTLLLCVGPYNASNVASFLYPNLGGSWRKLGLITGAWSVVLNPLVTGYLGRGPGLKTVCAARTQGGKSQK
Text: Evaluation of GPR40 antagonist activity with changes in intracellular calcium concentration as index
An assay system of GPR40 antagonist was established as follows. In this assay system, as the GPR40 agonist, 3-(4-((6-benzyloxy-2′,6′-dimethyl-biphenyl-3-yl)methoxy)phenyl)propanoic acid (compound described in Example 340 of WO2004/041266) was used.
First, NFAT-TA was cut out from pNFAT-TA-Luc (manufactured by BD Bioscience Clontech) with HindIII and NheI, the recovered fragment was inserted into pGL3 basic neo digested with HindIII and NheI to give plasmid:pGL3 basic neo NFAT-TA-Luc.
This plasmid was used for “the CHO cell line (CHO-hGPR40 No. 104), which was made to express human GPR40” described in WO2004/041266, and a cell line CHO(dhfr-)/GPR40-NFAT-Luc, wherein a reporter gene was stably expressed by a method known per se, was prepared.
This cell line was diluted with a medium (nucleic acid-free MEM (Minimum Essential Medium)—α medium added with dialyzed FBS (Fetal Bovine Serum) to a final concentration of 10%) in such a manner that 2×10^4 cells/100 μl would be contained, dispensed to a white walled 96 well plate (manufactured by Coster) by 100 μl per well, and cultured overnight in a CO2 incubator. Then the medium was removed by suction from the 96 well plate, and a 10 mM test compound-dimethyl sulfoxide (manufactured by Wako Pure Chemical Industries, Ltd.) solution diluted with a medium (nucleic acid-free MEM—α medium added with bovine serum albumin (BSA) free of fatty acid to a final concentration of 0.1%) to each concentration was added by 50 μl per well. Further, 3-(4-((6-benzyloxy-2′,6′-dimethyl-biphenyl-3-yl)methoxy)phenyl)propanoic acid diluted with a medium (nucleic acid-free MEM-α (medium added with BSA free of fatty acid to a final concentration of 0.1%) to a final concentration of 40 nM was added to the 96 well plate by 50 μl per well.
After culture in a CO2 incubator for 4 hr, the culture medium was removed from the 96 well plate. Then, PicaGene (manufactured by TOYO INK MFG. CO., LTD.) was added to the 96 well plate, and the luciferase activity was determined using PerkinElmer ARVO (trade name, manufactured by PerkinElmer), based on which changes in the intracellular calcium concentration were evaluated. After assay of luciferase activity, nonlinear regression analysis was performed using PRISM 3 (trade name, manufactured by GraphPad) and IC50 value was calculated with changes in the intracellular calcium concentration as an index.
In the same manner as in Experimental Example 1, the IC50 value of the compound of the present invention was calculated.

`CCCCOc1ccc(-n2c(NCc3ccc(C(C)(C)C)cc3)nc3ccc(Cl)cc32)cc1` [Example 75, 1-(4-Butoxyphenyl)-N-(4-tert-butylbenzyl)-6-chloro-1H-benzimidazol-2-amine] showed an IC50 (human GPR40) of less than 100 nM.
For `CC(C)Oc1ccc(-n2c(SCc3ccc(Cl)cc3)nc3cc(Cl)ccc32)cc1` [Example 46, 5-Chloro-2-[(4-chlorobenzyl)thio]-1-(4-isopropoxyphenyl)-1H-benzimidazole], the IC50 (human GPR40) was less than 100 nM.
`CCOc1ccc(-n2c(NCc3ccc(Br)cc3)nc3ccc(Cl)cc32)cc1` [Example 50, N-(4-Bromobenzyl)-6-chloro-1-(4-ethoxyphenyl)-1H-benzimidazol-2-amine] showed an IC50 (human GPR40) of less than 100 nM.
`FC(F)(F)COc1ccc(-n2c(SCc3ccc(Cl)cc3)nc3cc(Cl)ccc32)cc1` [Example 67, 5-chloro-2-[(4-chlorobenzyl)thio]-1-[4-(2,2,2-trifluoroethoxy)phenyl]-1H-benzimidazole] showed an IC50 (human GPR40) of less than 100 nM.
With `CCOc1ccc(-n2c(SCc3ccc(Cl)cc3)nc3cc(Cl)ccc32)cc1` [Example 65, 5-Chloro-2-[(4-chlorobenzyl)thio]-1-(4-ethoxyphenyl)-1H-benzimidazole hydrochloride] the IC50 (human GPR40) was less than 100 nM.
Work on `FC(F)(F)Oc1ccc(-n2c(SCc3ccc(Cl)cc3)nc3ccc(Cl)cc32)cc1` [Example 141, 6-Chloro-2-[(4-chlorobenzyl)thio]-1-[4-(trifluoromethoxy)phenyl]-1H-benzimidazole] yielded a melting point of 88 to 89 °C.
With `COCOc1ccc(-n2c(SCc3cccnc3)nc3ccc(Cl)cc32)cc1` [Example 56, 6-Chloro-1-[4-(methoxymethoxy)phenyl]-2-[(pyridin-3-ylmethyl)thio]-1H-benzimidazole] the melting point was 101 to 102 °C.
Work on `Clc1ccc(CSc2nc3ccc(Cl)cc3n2-c2ccc(C3=NCCO3)cc2)cc1` [Example 124, 6-Chloro-2-[(4-chlorobenzyl)thio]-1-[4-(4,5-dihydro-1,3-oxazol-2-yl)phenyl]-1H-benzimidazole] yielded a melting point of 143 to 144 °C.
In the case of `CCC(=O)c1ccc(-n2c(SCc3ccc(Cl)cc3)nc3ccc(Cl)cc32)cc1` [Example 40, 1-(4-{6-Chloro-2-[(4-chlorobenzyl)thio]-1H-benzimidazol-1-yl}phenyl)propan-1-one], the melting point is reported as 176 to 177 °C.
For `CCCCOc1ccc(-n2c(NCc3ccc(C(C)(C)C)cc3)nc3cc(Cl)c(Cl)cc32)cc1` [Example 99, 1-(4-butoxyphenyl)-N-(4-tert-butylbenzyl)-5,6-dichloro-1H-benzimidazol-2-amine], the IC50 (human GPR40) was less than 100 nM.
For `CC(C)C(=O)c1ccc(-n2c(SCc3ccc(Cl)cc3)nc3ccc(Cl)cc32)cc1` [Example 41, 1-(4-{6-Chloro-2-[(4-chlorobenzyl)thio]-1H-benzimidazol-1-yl}phenyl)-2-methylpropan-1-one], the melting point was 162 to 163 °C.
With `OCc1ccc(-n2c(SCc3ccc(Cl)cc3)nc3ccc(Cl)cc32)cc1` [Example 115, (4-{6-Chloro-2-[(4-chlorobenzyl)thio]-1H-benzimidazol-1-yl}phenyl)methanol] the melting point was 121 to 122 °C.
With `COc1ccccc1-n1c(SCc2ccc(Cl)cc2)nc2ccc(Cl)cc21` [Example 18, 6-Chloro-2-[(4-chlorobenzyl)thio]-1-(2-methoxyphenyl)-1H-benzimidazole] the melting point was 124 to 125 °C.
`CCOc1ccc(-n2c(SC(C)c3ccc(Br)cc3)nc3ccc(Cl)cc32)cc1` (stereo not drawn) [Example 48, 2-{[1-(4-Bromophenyl)ethyl]thio}-6-chloro-1-(4-ethoxyphenyl)-1H-benzimidazole] showed a melting point of 95 to 98 °C.
Work on `Clc1ccc2nc(SCc3ccccc3)n(-c3ccccc3)c2c1` [Example 49, 2-(Benzylthio)-6-chloro-1-phenyl-1H-benzimidazole] yielded a melting point of 82 to 83 °C.
In the case of `CCOc1ccc(-n2c(NC(C)c3ccc(Br)cc3)nc3ccc(Cl)cc32)cc1` (stereo not drawn) [Example 71, N-[1-(4-Bromophenyl)ethyl]-6-chloro-1-(4-ethoxyphenyl)-1H-benzimidazol-2-amine], the IC50 (human GPR40) is reported as less than 100 nM.
`CCOc1ccc(-n2c(SCc3ccc(Cl)cc3)nc3cccc(Cl)c32)cc1` [Example 138, 7-Chloro-2-[(4-chlorobenzyl)thio]-1-(4-ethoxyphenyl)-1H-benzimidazole] gave a melting point of 130 to 131 °C.
`FC(F)(F)COc1ccc(-n2c(NCc3ccc(Cl)cc3)nc3ccc(Cl)cc32)cc1` [Example 79, 6-Chloro-N-(4-chlorobenzyl)-1-[4-(2,2,2-trifluoroethoxy)phenyl]-1H-benzimidazol-2-amine] gave a melting point of 150 to 151 °C.
`Clc1ccc(CSc2nc3ccc(Cl)cc3n2-c2ccc(OCC3CC3)cc2)cc1` [Example 11, 6-Chloro-2-[(4-chlorobenzyl)thio]-1-[4-(cyclopropylmethoxy)phenyl]-1H-benzimidazole] showed a melting point of 137 to 138 °C.
Work on `CCOC(=O)N1CCC(n2c(SCc3ccc(Cl)cc3)nc3ccc(Cl)cc32)CC1` [Example 58, Ethyl 4-{6-chloro-2-[(4-chlorobenzyl)thio]-1H-benzimidazol-1-yl}piperidine-1-carboxylate] yielded a melting point of 118 to 119 °C.
Molecule `CCOc1ccc(-n2c(SCc3ccc(Br)cc3)nc3ccc(Cl)cc32)cc1` [Example 30, 2-[(4-Bromobenzyl)thio]-6-chloro-1-(4-ethoxyphenyl)-1H-benzimidazole] has a melting point of 136 to 137 °C.
With `COc1ccc(-n2c(SCc3ccc(Cl)cc3)nc3ccc(Cl)cc32)cn1.Cl` the melting point was 80 to 86 °C.
`COCCOc1ccc(-n2c(SCc3ccc(Cl)cc3)nc3ccc(Cl)cc32)cc1` [Example 24, 6-Chloro-2-[(4-chlorobenzyl)thio]-1-[4-(2-methoxyethoxy)phenyl]-1H-benzimidazole] showed a melting point of 88 to 90 °C.
Molecule `COc1ccc(CSc2nc3ccc(Cl)cc3n2-c2ccc(OC)cc2)cc1` [Example 6, 6-Chloro-2-[(4-methoxybenzyl)thio]-1-(4-methoxyphenyl)-1H-benzimidazole] has a melting point of 119 to 120 °C.
In the case of `Clc1ccc(CSc2nc3ccc(Cl)cc3n2-c2ccc(Cl)cc2)cc1` [Example 26, 6-Chloro-2-[(4-chlorobenzyl)thio]-1-(4-chlorophenyl)-1H-benzimidazole], the melting point is reported as 156 to 157 °C.
Molecule `FC(F)(F)COc1ccc(-n2c(NCc3ccc(Cl)cc3)nc3cc(Cl)c(Cl)cc32)cc1` [Example 104, 5,6-Dichloro-N-(4-chlorobenzyl)-1-[4-(2,2,2-trifluoroethoxy)phenyl]-1H-benzimidazol-2-amine] has a melting point of 138 to 139 °C.
`CCOc1ccc(-n2c(SCc3ccc(C#N)cc3)nc3ccc(Cl)cc32)cc1` [Example 35, 4-({[6-Chloro-1-(4-ethoxyphenyl)-1H-benzimidazol-2-yl]thio}methyl)benzonitrile] showed a melting point of 154 to 155 °C.
In the case of `O=C(NCCO)c1ccc(-n2c(SCc3ccc(Cl)cc3)nc3ccc(Cl)cc32)cc1` [Example 43, 4-{6-Chloro-2-[(4-chlorobenzyl)thio]-1H-benzimidazol-1-yl}-N-(2-hydroxyethyl)benzamide], the melting point is reported as 185 to 186 °C.
Work on `FC(F)(F)COc1ccc(-n2c(NCc3ccc(Cl)cc3)nc3cc(Cl)ccc32)cc1` [Example 91, 5-Chloro-N-(4-chlorobenzyl)-1-[4-(2,2,2-trifluoroethoxy)phenyl]-1H-benzimidazol-2-amine] yielded a melting point of 138 to 139 °C.
For `Oc1ccc(-n2c(SCc3ccc(Cl)cc3)nc3ccc(Cl)cc32)cc1` [Example 9, 4-{6-Chloro-2-[(4-chlorobenzyl)thio]-1H-benzimidazol-1-yl}phenol], the melting point was 210 to 212 °C.
Molecule `CCOc1ccc(-n2c(NCc3ccc(Cl)cc3)nc3ccc(Cl)cc32)cc1.Cl` [Example 68, N-(4-Chlorobenzyl)-6-chloro-1-(4-ethoxyphenyl)-1H-benzimidazol-2-amine hydrochloride] has a melting point of 173 to 175 °C.
Molecule `FC(F)(F)Oc1ccc(-n2c(SCc3ccc(Cl)cc3)nc3cc(Cl)c(Cl)cc32)cc1` [Example 142, 5,6-Dichloro-2-[(4-chlorobenzyl)thio]-1-[4-(trifluoromethoxy)phenyl]-1H-benzimidazole] has a melting point of 111 to 112 °C.
With `Clc1ccc(CSc2nc3ccc(Cl)cc3n2-c2ccccn2)cc1` [Example 130, 6-Chloro-2-[(4-chlorobenzyl)thio]-1-(pyridin-2-yl)-1H-benzimidazole] the melting point was 107 to 108 °C.
